Assay results: US6541196B2, “Method for cAMP production” (Jackson State University, priority 2000, dated 2003)

Experiments:
HFMc = experiment: cAMP accumulation in human fetal mesangial cells (extracellular cAMP, competitive 3H-cAMP binding kit); assay type: cell-based; conditions: 10 min; for cAMP accumulation compared with control cells: confluent serum-starved HFMc, Ang II 1 μM, bFGF 20 ng/ml, p<0.05
Method: The culture medium was aspirated from HFMc monolayers, and the cells were washed three times with PBS. Cell monolayers were then overlaid with PBS at room temperature on 100 mm culture dishes. A cAMP phosphodiesterase inhibitor was added to a final concentration of 10 μM to all incubations to prevent the enzymatic degradation of cellular cAMP. Isoproterenol (ISO) at 10^−5M, with or without bFGF (basic fibroblast growth factor) (20 ng/ml), or three doses of ISO (10^−5, 10^−7, 10^−9M) with 10^−6M angiotensin II (Ang II) were added to the treatment groups. Cells were incubated under an atmosphere of 95% air and 5% CO2 at 37° C. for 10 minutes. Following the incubation period, 1.0 ml/plate aliquot samples were transferred to 12×75 mm polypropylene tubes, and immediately placed in a 0° C. ice bath. The cell monolayers and 1.0 ml aliquots were stored at −20° C. for protein determination and cAMP analysis respectively. Total cellular protein was determined using the BCA (bicinchoninic acid) protein assay (Pierce, Rockford, Ill.) according to the manufacturers specification. The extracellular cAMP per plate was quantified using Diagnostic Corporation (Los Angeles, Calif.) kits according to the manufacturer's specifications; this procedure is patterned after a procedure described by Tovey et al. The procedure entails a competition of ^3H cAMP for cAMP binding protein, separation of free (unbound) cAMP by adsorption onto dextrancoated charcoal, followed by counting of bound ^3H by liquid scintillation (Izevbigie, Pediatr. Res., 2000).

MDCKE11 cells = experiment: cAMP production in renal tubular epithelial cells (MDCK); assay type: cell-based, canine; conditions: P<0.001 when compared to all other groups
Method: The culture medium was aspirated from RTEc monolayers, and the cells were washed three times with PBS. Madin-Darby canine kidney cell (MDCKc) monolayers were then overlaid with 5 mls PBS at room temperature on 100 mm culture dishes. cAMP phosphodiesterase inhibitor was added at a final concentration of 10 μM to all incubations to prevent the enzymatic degradation of cellular cAMP. Isoproterenol (ISO) at 10^−5M, bFGF (basic fibroblast growth factor) (20 ng/ml), or both were added to the treatment groups. Cells were incubated under an atmosphere of 95% air and 5% CO2 at 37° C. for 1, 3, 5, 10, 20, and 40 minute periods. Following the incubation period, 1.0 ml/plate aliquot samples were transferred to 12×75 mm polypropylene tubes, and immediately placed in a 0° C. ice bath. […] Total cellular protein was determined using the BCA (bicinchoninic acid) protein assay (Pierce, Rockford, Ill.) according to the manufacturers specification. The cAMP assays were done as prescribed by the manufacturer of the cAMP quantitation kit (Diagnostic Products Corporation, Los Angeles, Calif.); this procedure is patterned after a procedure described by Tovey et al. The procedure entails a competition of ^3H cAMP for cAMP binding protein, separation of free (unbound) cAMP by adsorption onto dextrancoated charcoal, followed by counting of bound ^3H by liquid scintillation (Izevbigie, Pediatr. Nephrol., 2000).

[1] = tested on: differentiated C2C12 cells; experiment: cAMP production in differentiated C2C12 myoblasts; assay type: cell-based, mouse; conditions: isoproterenol 10, 0.1 or 0.001 μM, 37° C., 10 min
Method: Medium was aspirated from differentiated C2C12 cells, and monolayers were washed with PBS. Monolayers were then overlaid with PBS at 37° C. containing the following treatments: isoproterenol (ISO) at 10^−5, 10^−7, and 10^−9 M forskolin (positive control) at 5×10^−5 M, and negative control (no treatments). A cAMP phosphodiesterase inhibitor, imidazolidin, (10^−6 M) was added to all incubations to prevent enzymatic degradation of cAMP. Culture dishes were placed in a humidified incubator under an atmosphere of 95% air and 5% CO2 at 37° C. for 5-10 min. After the incubation, aliquots of incubation medium were quickly removed, chilled, and stored at −20° C. for cAMP determination (within 3 days). Cells were washed and frozen for later protein determination (Bradford, 1976). The cAMP assays were done as prescribed by the manufacturer of the cAMP quantitation kit (Diagnostic Products Corporation, Los Angeles, Calif.); this procedure is patterned after a procedure described by Tovey et al. The procedure entails a competition of ^3H cAMP for cAMP binding protein, separation of free (unbound) cAMP by adsorption onto dextran-coated charcoal, followed by counting of bound ^3H by liquid scintillation. […] Thus, cAMP production was determined as the sum of assayable cAMP in the PBS and within the cells.

Compound | cAMP accumulation compared with control cells (HFMc) | cAMP production (MDCKE11 cells) | cAMP production [1] | modulation of isoproterenol-induced cAMP accumulation (HFMc; serum-starved HFMc, Ang II (1 µM) with different concentrations of isoproterenol, significant at 0.1 and 10 μM isoproterenol (p<0.05))
basic fibroblast growth factor [bFGF] | modest but significant increase |  |  | 
CC(C)NCC(O)c1ccc(O)c(O)c1 (centres unmarked) [Isoproterenol, isoproterenol] |  | induction of cAMP production | dose-dependent cAMP production | 
angiotensin II (DRVYIHPF; Angiotensin-2; UniProt P01019 25-32, looked up) [Ang II] | not |  |  | decreased
